Experimental data as given in patent US7671058B2, “N-(3,4-disubstituted phenyl) salicylamide derivatives” (Institute of Medicinal Molecular Design, Inc., priority 2006, dated 2010).
pIC50: −log10 of the molar value. Where two headings read alike, the source gives them in different places.

Legend:
STAT6 = STAT6 inhibition test: (GLS)x8/pTA-Luc luciferase reporter in U2-OS cells stimulated with human IL-4; assay type: cell-based; settings: human IL-4 40 ng/mL; for pIC50: from inhibition rates at 1, 0.1, 0.01 and 0.001 μM, read-out: IC50 against activation of STAT6
Description: (1) Construction of a STAT6 Reporter Plasmid
The Oligonucleotides (SEQ ID: 1, 2) containing two copies of STAT6 binding sequences (refer to J. Biol. Chem., vol. 276, No. 9, pp. 6675-6688 (2001).) were synthesized, and integrated into the enhancer region of the reporter plasmid pTA-Luc Vector (CLONTECH Laboratories, Inc.) at the restriction enzyme BgIII site.
When the oligonucleotide is integrated in positive direction into the plasmid, the upstream BglII site is not reconstructed. Therefore, STAT6 binding sequences can be increased by repeating integration of the oligonucleotide at the restriction enzyme BglII site.
In the present test, a plasmid including eight integrated STAT6 binding sequences was constructed and provided for the reporter assay as (GLS)x8/pTA-Luc. Confirmation of the sequences was carried out using an automated fluorescence sequencer (Model 310 (Applied Biosystems)).
(2) Transfection into U2-OS Cells and Inhibition Test for STAT6 Activation
U2-OS cells were seeded to at 2×10^4 cells/well in 96-well culture plates, and transfection was carried out using FuGENE 6 Transfection Reagent (Roche Diagnostics GmbH). The procedures of the transfection are shown below.
11 μg of reporter plasmid ((GLS)x8/pTA-Luc) and 1.1 μg of pCMV β (CLONTECH Laboratories, Inc.) were mixed in 1.1 mL of OPTI-MEM I medium (GIBCO BRL) (solution (A)).
33 μL of FuGENE 6 Transfection Reagent was mixed in 1.1 mL of OPTI-MEM I medium (solution (B)).
(§1) The above solution (A) and solution (B) were mixed, let them stand for 15 minutes at room temperature, then, 8.8 mL of OPTI-MEM I medium was added and diluted.
To this transfection solution, U2-OS cell suspension (11 mL) in McCoy's 5A medium (GIBCO BRL) containing 10% Fetal Bovine Serum (FBS; GIBCO BRL) at 2×10^5 cells/mL was added and well mixed.
(§2) 0.2 mL of the above solution was dispensed into each well of 96-well culture plates, and incubated for 24 hours (37° C., 5% CO2).
After removal of 50 μL of medium from each well, 50 μL of McCoy's 5A medium (serum-free) containing compound, of the present application was added to a final concentration of 0.01˜2 μM (0.001, 0.01, 0.1, 0.5, 1 or 2 μM), and the plates were incubated for 2 hours (37° C., 5% CO2).
10 μL of the McCoy's 5A medium (serum-free) containing human IL-4 (R&D Systems, Inc) was added to each well to achieve a final concentration of 40 ng/mL, and incubated for 8 hours (37° C., 5% CO2).
(§3) Medium was completely removed and plates were preserved at −80° C. until measurements.
(§4) Cell lysates were prepared by adding 40 μL of Passive Lysis Buffer (Promega Corporation) to each well.
(§5) 10 μL of each lysate was transferred to 96-well white plates. 50 μL of PicaGene L.T.2.0 (TOYO INK MFG. CO., LTD.) was added to each well, then, luminescence was measured after leaving for 10 minutes at room temperature.
(§6) 10 μL of each lysate was transferred to 96-well black plates. 100 μL of Z Buffer (preparation method will be explained later) was added to each well, and fluorescence was measured immediately.
(§7) 10 μL of each lysate was transferred to 96-well clear plates. 200 μL of protein assay reagent prepared from the BCA Protein Assay Kit (Pierce Biotechnology, Inc.) was added to each well, and, absorbance was measured after incubation for 30 minutes at 37° C.
(§8) For measurements of luminescence, fluorescence, and absorbance, microplate reader GENios (TECAN G.M.B.H.) was used.
(4) Calculation of Inhibition Rate
Luminescence values that show the degree of activation by IL-4 stimulation were normalized by β-gal values that show transfection efficiency. Using the normalized values, the following calculations were carried out using the luminescence values increased by IL-4 stimulation. Inhibition Rate(%)=[…] E: In the presence of the compound of the present application, increased luminescence value by IL-4 stimulation C: Without the presence of the compound of the present application, increased luminescence value by IL-4 stimulation […]

NF-κB = NF-κB inhibition test: pNFκB-Luc luciferase reporter in U2-OS cells stimulated with human TNF α; assay type: cell-based; settings: human TNF α 10 ng/mL; for pIC50: from inhibition rates at 1, 0.1, 0.01 and 0.001 μM, read-out: IC50 against activation of NF-κB
Protocol: (1) Transfection to U2-OS Cells and Inhibition Test of Activation
U2-OS cells were seeded at 2×10^4 cells/well in 96-well culture plate, and transfection was carried out using FuGENE 6 Transfection Reagent (Roche Diagnostics GmbH). The procedures of the transfection are shown below.
11 μg of reporter plasmid (pNFκB-Luc; Stratagene Corporation) and 1.1 μg of pCMV β (CLONTECH Laboratories, Inc.) were mixed in 1.1 mL of OPTI-MEM I medium (GIBCO BRL) (solution (A)).
[…] of FuGENE 6 Transfection Reagent was mixed in 1.1 mL of OPTI-MEM I medium (solution (B)).
as §1
To this transfection solution, U2-OS cell suspension (11 mL) in McCoy's 5A medium (GIBCO BRL) containing 10% Fetal Bovine Serum (FBS; GIBCO BRL) at […] was added and well mixed.
as §2
After removal of 50 μL of medium from each well, 50 μL of McCoy's 5A medium (serum-free) containing compound of the present application was added to a final concentration of 0.01˜2 μM (0.001, 0.01, 0.1, 0.5, 1 or 2 μM), and the plates were incubated for 2 hours (37° C., 5% CO2).
10 μL of the McCoy's 5A medium (serum-free) containing human TNF α (PEPROTECH EC Ltd.) was added to each well to achieve a final concentration of 10 ng/mL, and incubated for 8 hours (37° C., 5% CO2).
as §3, §4, §5, §6, §7, §8
(3) Calculation of Inhibition Rate
Luminescence values that show the degree of activation by TNF α stimulation were normalized by β-gal values that show transfection efficiency. Using the normalized values, the following calculation was carried out using the luminescence values that increased by TNF α stimulation. Inhibition Rate(%)=[…] E: In the presence of the compound of the present application, increased luminescence values by TNF α stimulation C: Without the presence of the compound of the present application, increased luminescence values by TNF α, stimulation
The values of protein assay by BCA reagent were used for a simple assessment of cytotoxicity, and not used for the calculation of inhibition rates.
NF-κB Inhibition Rates are shown below. The values in parentheses in the table represent the concentration of the compound of the present application.
NF-κB inhibition rates where the concentrations of the compound of the present application were 1, 0.1, 0.01 and 0.001 μM were calculated, and the 50% inhibitory concentrations (IC50) of the compounds of the present application against activation of NF-κB were evaluated.

Row | pIC50 (STAT6) | pIC50 (NF-κB) | pIC50 (STAT6; U2OS) | pIC50 (NF-κB; U2OS) | Compound | Inhibition Rate of STAT6 (%) (STAT6; compound 2 μM, 8 hours) | Inhibition Rate of NF-κB (%) (NF-κB; compound 2 μM, 8 hours) | inhibition at 2 µM (STAT6; U2OS, compound 2 μM, 8 hours, read-out: Inhibition Rate of STAT6 (%)) [%] | inhibition at 2 µM (NF-κB; U2OS, compound 2 μM, 8 hours, read-out: Inhibition Rate of NF-κB (%)) [%]
1 | 7.09 | 7.05 | – | – | CN1CCN(c2ccc(NC(=O)c3cc(Cl)ccc3O)cc2C(F)(F)F)CC1.Cl [compound 16] | 92 (2 μM) % | 86 (2 μM) % | – | –
2 | – | – | – | – | Cl.O=C(Nc1ccc(OCC2CCNCC2)c(F)c1)c1cc(Cl)ccc1O [compound 45] | 76 (2 μM) % | 68 (2 μM) % | – | –
3 | 8.10 | 7.85 | – | – | Cl.NCC1CCN(c2ccc(NC(=O)c3cc(Cl)ccc3O)cc2F)CC1 [compound 47] | 96 (2 μM) % | 95 (2 μM) % | – | –
4 | 7.82 | 7.36 | – | – | Cl.NCC1CCCN(c2ccc(NC(=O)c3cc(Cl)ccc3O)cc2F)C1 (centres unmarked) [compound 54] | 89 (2 μM) % | 84 (2 μM) % | – | –
5 | – | – | – | – | NC(=O)C1CCCN(c2ccc(NC(=O)c3cc(Cl)ccc3O)cc2F)C1 (centres unmarked) [compound 48] | 42 (2 μM) % | 40 (2 μM) % | – | –
6 | – | – | – | – | NC1CCC(Oc2ccc(NC(=O)c3cc(Cl)ccc3O)cc2F)CC1 (centres unmarked) [compound 65] | 42 (2 μM) % | 20 (2 μM) % | – | –
7 | – | – | – | – | CC(=O)N1CCN(c2ccc(NC(=O)c3cc(Cl)ccc3O)cc2F)CC1 [compound 11] | 40 (2 μM) % | 22 (2 μM) % | – | –
8 | – | – | – | – | CC1CCC(C)N1c1ccc(NC(=O)c2cc(Cl)ccc2O)cc1F (centres unmarked) [compound 84] | 83 (2 μM) % | 61 (2 μM) % | – | –
9 | – | – | – | – | CN1CCN(c2ccc(NC(=O)c3ccc(F)cc3O)cc2F)CC1.Cl [compound 58] | 70 (2 μM) % | 59 (2 μM) % | – | –
10 | 7.24 | 7.40 | – | – | O=C(Nc1ccc(N2CCCCC2)c(F)c1)c1cc(Cl)ccc1O [compound 2] | 90 (2 μM) % | 77 (2 μM) % | – | –
11 | 8.49 | 8.15 | – | – | CN1CCCN(c2ccc(NC(=O)c3cc(Cl)ccc3O)cc2F)CC1 [compound 34] | 94 (2 μM) % | 95 (2 μM) % | – | –
12 | 6.98 | 7.18 | – | – | Cl.NC1CCN(c2ccc(NC(=O)c3cc(Cl)ccc3O)cc2C(F)(F)F)CC1 [compound 74] | 80 (2 μM) % | 84 (2 μM) % | – | –
13 | – | – | – | – | O=C(Nc1ccc(N2CCC(O)CC2)c(F)c1)c1cc(Cl)ccc1O [compound 43] | 46 (2 μM) % | 32 (2 μM) % | – | –
14 | 7.97 | 8.12 | – | – | CN1CCCN(c2ccc(NC(=O)c3cc(Br)ccc3O)cc2F)CC1 [compound 86] | 93 (2 μM) % | 93 (2 μM) % | – | –
15 | 7.43 | 7.36 | – | – | CN1CCC(Oc2ccc(NC(=O)c3cc(Cl)ccc3O)cc2F)CC1 [compound 24] | 93 (2 μM) % | 91 (2 μM) % | – | –
16 | – | – | 7.39 | 7.20 | CNC1CCN(c2ccc(NC(=O)c3cc(Cl)ccc3O)cc2F)CC1 [Compound 68] | – | – | 74 | 71
17 | 7.97 | 7.52 | – | – | CN1CCN(c2ccc(NC(=O)c3cc(Br)ccc3O)cc2F)CC1 [compound 69] | 79 (2 μM) % | 76 (2 μM) % | – | –
18 | – | – | – | – | O=C(Nc1ccc(N2CCCN(Cc3ccccc3)CC2)c(F)c1)c1cc(Cl)ccc1O [compound 52] | 55 (2 μM) % | 27 (2 μM) % | – | –
19 | – | – | – | – | CN1CCN(c2ccc(NC(=O)c3cc(C(F)(F)F)ccc3O)cc2F)CC1.Cl [compound 62] | 96 (2 μM) % | 89 (2 μM) % | – | –
20 | – | – | – | – | CN1CCCC(COc2ccc(NC(=O)c3cc(Cl)ccc3O)cc2F)C1 (centres unmarked) [compound 50] | 43 (2 μM) % | 45 (2 μM) % | – | –
21 | – | – | – | – | CCC1CN(c2ccc(NC(=O)c3cc(Cl)ccc3O)cc2F)CCN1.Cl (centres unmarked) [compound 72] | 37 (2 μM) % | 41 (2 μM) % | – | –
